Measurements taken from patent US5153218A, “N,N',N'-trisubstituted-bis-amino-3-methylene-2,4(3H,5H)-furandione inhibitors of acyl-CoA:cholesterol-acyl transferase” (American Home Products Corporation, priority 1991, dated 1992).
Read-outs that look alike come from different tables or passages of the source.

Tests used:
[1] = tested on: acyl-coenzyme A: cholesterol acyltransferase; assay: inhibition of acyl-coenzyme A: cholesterol acyltransferase in vitro (intracellular cholesterol esterification, procedure of Ross et al.); assay type: cell-based; settings: for percent inhibition at a single concentration: unit assumed
Text: The ability of the compounds of this invention to inhibit acyl-coenzyme A: cholesterol acyltransferase was established in vitro by initially showing that they inhibited intracellular cholesterol esterification by subjecting them to the standard experimental test procedure of Ross et al., J. Biol. Chem. 259 815 (1984).

Plasma Cholesterol = assay: in vivo decrease of plasma cholesterol in cholesterol-cholic acid fed rats; settings: oral gavage, four days
Description: In addition, representative compounds were studied in vivo in cholesterol-cholic acid fed rats to determine the percent decrease of cholesterol in their plasma. This study involves rats which are, prior to testing, trained for one week to eat over a four hour time period each day. Upon initiation of the experiment, the rats diet is supplemented with 1.0 percent cholesterol and 0.25 percent cholic acid. The rats are dosed with the test compound by oral gavage just prior to and just following the four hour feeding period. This is repeated for four days. On the fifth day, the rats are sacrificed and the total plasma cholesterol content is determined. The percent decrease in elevated plasma cholesterol levels is calculated in comparison with normal-fed controls.

[2] = tested on: 14C-Cholesterol Absorption; settings: po
Description: Representative compounds were further tested in vivo to establish the percent inhibition of cholesterol absorption. In this study, normal rats were dosed (oral gavage) with ^14 C-cholesterol plus the test compound. Blood samples taken at six hours and/or intermittently up to twenty-four hours were analyzed and the percent inhibition of cholesterol absorption was calculated.

| SMILES | IC50 [1] [µM] | percent inhibition at a single concentration ([1]; Conc. 50 mM (so in the source)) [%] | percent inhibition at a single concentration ([1]; Conc. 25 mM (so in the source)) [%] | further results |
| --- | --- | --- | --- | --- |
| CCCCCCN(CCCCCC)C(Nc1ccc(OC)cc1OC)=C1C(=O)COC1=O [Example 9, 3-[(Dihexylamino)[(2,4-dimethoxyphenyl)amino]methylene]-2,4(3H,5H)-furandione] | 25 | 87 | – | – |
| CCCCCC(C)N(Cc1ccc(OCCC(C)C)cc1)C(Nc1ccc(OC)cc1OC)=C1C(=O)COC1=O (centres unmarked) [Example 21, 3-[[(2,4-Dimethoxyphenyl)amino][[[4-(3-methylbutoxy)phenyl]methyl](1-methylhexyl)amino]methylene]-2,4(3H,5H)-furandione] | 4.9 | – | 97 | % Decrease in Plasma Cholesterol (Plasma Cholesterol; 20 mg/kg): -23% |
| CCCCCCC(C)N(Cc1ccc(CC(C)(C)C)cc1)C(Nc1cc(C(C)(C)C)c(O)c(C(C)(C)C)c1)=C1C(=O)COC1=O (centres unmarked) [Example 22, 3-[[[3,5-Bis(1,1-dimethylethyl)-4-hydroxyphenyl]amino][[[4-(2,2-dimethylpropyl)phenyl]methyl](1-methylheptyl)amino]methylene]-2,4(3H,5H)-furandione] | 0.07 | – | 97 | % Decrease in Plasma Cholesterol (Plasma Cholesterol; 20 mg/kg): -80% |
| CCCCCCCN(Cc1ccc(C(C)(C)C)cc1)C(Nc1c(C)cc(C)cc1C)=C1C(=O)COC1=O [Example 15, 3-[[[[4-(1,1-Dimethylethyl)phenyl]methyl]heptylamino][(2,4,6-trimethylphenyl)amino]methylene]-2,4(3H,5H)-furandione] | – | – | 73 | – |
| CCCCCCCC/C=C\CCCCCCCCNC(Nc1ccc(F)cc1)=C1C(=O)COC1=O [Example 10, 3-[[(4-Fluorophenyl)amino]((Z)-9-octadecenylamino)methylene]2,4(3H,5H)-furandione] | > 30 | 61 | – | – |
| CCCCCCCC/C=C\CCCCCCCCN(Cc1ccc(C(C)(C)C)cc1)C(Nc1ccc(F)cc1)=C1C(=O)COC1=O [Example 18, 3-[[[[4-(1,1-Dimethylethyl)phenyl]methyl]((Z)-9-octadecenyl)amino][(4-fluorophenyl)amino]methylene]-2,4(3H,5H)-furandione] | – | – | 44 | – |
| CCCCCC(C)N(Cc1ccc(CC(C)(C)C)cc1)C(Nc1ccc(OC)cc1OC)=C1C(=O)COC1=O (centres unmarked) [Example 7, 3-[[(2,4-Dimethoxyphenyl]amino][[[4-(2,2-dimethylpropyl)phenyl]methyl](1-methylhexyl)-amino]methylene]2,4(3H,5H)-furandione] | 0.92 | – | 98 | % Decrease in Plasma Cholesterol (Plasma Cholesterol; 40 mg/kg): -26%; % Inhibition of Absorption ([2]; 20 mg/kg): -62% |
| CCCCCCN(CCCCCC)C(Nc1ccc(F)cc1)=C1C(=O)COC1=O [Example 2, 3-[(Dihexylamino)[(4-fluorophenyl)amino]methylene]-2,4(3H,5H)furandione] | – | 57 | – | – |
| CCCCCCN(CCCCCC)C(Nc1ccc(-c2ccccc2)cc1)=C1C(=O)COC1=O [Example 12, 3-[([1,1'-Biphenyl]-4-ylamino)(dihexylamino)methylene]-2,4(3H,5H)-furandione] | 27 | 90 | – | – |
| CCCCCCCN(Cc1ccc(CCCCCC)cc1)C(Nc1ccc(C(F)(F)F)cc1)=C1C(=O)COC1=O [Example 16, 3-[[Heptyl[(4-hexylphenyl)methyl]amino][[4-(trifluoromethyl)phenyl]amino]methylene]-2,4(3H,5H)-furandione] | – | – | 56 | – |
| CCCCCCCN(Cc1ccc(C(C)(C)C)cc1)C(Nc1ccc(OC)cc1OC)=C1C(=O)COC1=O [Example 3] | 4 | 90 | – | – |
| CCCCCCCN(Cc1ccc(C(C)(C)C)cc1)C(Nc1ccc(Cl)cc1)=C1C(=O)COC1=O [Example 17, 3-[[(4-Chlorophenyl)amino][[[4-(1,1-dimethylethyl)phenyl]methyl]heptylamino]methylene]-2,4(3H,5H)-furandione] | 24 | – | 84 | – |
| CCCCCCCC/C=C\CCCCCCCCNC(Nc1ccc(OC)cc1OC)=C1C(=O)COC1=O [Example 4, 3-[[(2,4-Dimethoxyphenyl)amino]((Z)-9-octadecenylamino)methylene]-2,4(3H,5H)-furandione] | – | 63 | – | % Inhibition of Absorption ([2]; 200 mg/kg): -14% |
| COc1ccc(NC(=C2C(=O)COC2=O)N(CCc2ccccc2)Cc2ccccc2)c(OC)c1 [Example 11, 3-[[(2,4-Dimethoxyphenyl)amino][(2-phenylethyl)(phenylmethyl)amino]methylene]-2,4(3H,5H)-furandione] | > 30 | 72 | – | – |
| CCCCCC(C)N(Cc1ccc(C(C)(C)C)cc1)C(Nc1ccc(OC)cc1OC)=C1C(=O)COC1=O (centres unmarked) [Example 20, 3-[[(2,4-Dimethoxyphenyl)amino][[[4-(1,1-dimethylethyl)phenyl]methyl](1-methylhexyl)amino]methylene]-2,4(3H,5H)-furandione] | 1.5 | – | 94 | – |
| CCCCCCCN(Cc1ccc(OCCC(C)C)cc1)C(Nc1ccc(OC)cc1OC)=C1C(=O)COC1=O [Example 6, 3-[[(2,4-Dimethoxyphenyl)amino][(heptyl)[[4-(3-methylbutoxy)phenyl]methyl]amino]methylene]-2,4(3H,5H)-furandione] | 0.4 | – | 99 | – |
| CCCCCC(C)N(Cc1ccc(CC(C)(C)C)cc1)C(Nc1cc(C(C)(C)C)c(O)c(C(C)(C)C)c1)=C1C(=O)COC1=O (centres unmarked) [Example 8] | 0.19 | – | 99 | % Decrease in Plasma Cholesterol (Plasma Cholesterol; 20 mg/kg): -71%; % Inhibition of Absorption ([2]; 20 mg/kg): -72% |
| CCCCCCCN(Cc1ccc(CC(C)(C)C)cc1)C(Nc1c(OC)cc(OC)cc1OC)=C1C(=O)COC1=O [Example 5, 3-[[[4-(2,2-Dimethylpropyl)phenylmethyl]heptylamino][(2,4,6-trimethoxyphenyl)amino]methylene]-2,4(3H,5H)-furandione] | 11 | – | 67 | – |
| CCCCCCCN(Cc1ccc(C(C)(C)C)cc1)C(Nc1ccc(F)cc1)=C1C(=O)COC1=O [Example 1, 3-[[[[4-(1,1-Dimethylethyl)phenyl]methyl]heptylamino][(4-fluorophenyl)amino]methylene]-2,4(3H,5H)-furandione] | 6 | 96 | – | % Inhibition of Absorption ([2]; 200 mg/kg): -74% |
| CCCCCCCN(Cc1ccc(C(C)(C)C)cc1)C(Nc1ccc(-c2ccccc2)cc1)=C1C(=O)COC1=O [Example 13, 3-[([1,1'-Biphenyl]-4-ylamino)[[[4-(1,1-dimethylethyl)phenyl]methyl]heptylamino]methylene]-2,4(3H,5H)-furandione] | 12 | 91 | – | – |
| CCCCCCCN(Cc1ccc(C(C)(C)C)cc1)C(Nc1ccc(F)cc1F)=C1C(=O)COC1=O [Example 14, 3-[[(2,4-Difluorophenyl)amino][[[4-(1,1-dimethylethyl)phenyl]methyl]heptylamino]methylene]-2,4(3H,5H)-furandione] | – | – | 39 | – |
| CCCCCCCN(Cc1ccc(C(C)(C)C)cc1)C(Nc1c(C)cc(N(C)C)cc1C)=C1C(=O)COC1=O [Example 19] | 9.5 | – | 77 | – |
| CCCCCCN(Cc1ccc(CC(C)C)cc1)C(Nc1cc(C(C)(C)C)c(O)c(C(C)(C)C)c1)=C1C(=O)COC1=O [Example 23] | – | – | 88 | – |
